Measured values reported in US20090069276A1, “Treatment, prevention and amelioration of pulmonary disorders associated with chemotherapy or radiotherapy with active vitamin D compounds or mimics thereof” (Novacea, Inc., priority 2005, published 2009).
Like-named read-outs stand apart in the source and are kept apart here.

What was measured:
[1] = test system: cancer patients; settings: cited from earlier work; for Patients who developed pneumonia: refractory chronic lymphocytic leukemia
[2] = test system: patients; settings: administered doses; Glover 1988; cited from earlier work
[3] = Solubility study of calcitriol in the formulations (light microscopy); format: physicochemical; settings: each formulation of Table 3; prepared at 50° C., cooled to room temperature; highest concentration tested
Method: To further assess the formulations of calcitriol, a solubility study was conducted to evaluate the amount of calcitriol soluble in each formulation. Calcitriol concentrations from 0.1 to 0.6 μg calcitriol/mg fomulation were prepared by heating the formulations to 50° C. followed by addition of the appropriate mass of calcitriol. The formulations were then allowed to cool to room temperature and the presence of undissolved calcitriol was determined by a light microscope with and without polarizing light. For each formulation, calcitriol was soluble at the highest concentration tested, 0.6 μg calcitriol/mg formulation.

[4] = test system: patients with androgen independent prostate cancer; settings: Taxotere 36 mg/m^2 weekly, calcitriol 45 μg weekly by HDPA
Text: Two hundred fifty patients with androgen independent prostate cancer were enrolled in a randomized placebo controlled trial at 48 centers in the United States and Canada. All patients in the study received chemotherapy treatment with weekly Taxotere®, a drug in the taxoid class of chemotherapeutic agents. […] Oral dexamethasone was also given along with the Taxotere® to minimize certain side effects (allergic reactions and fluid retention) associated with Taxotere®.
In addition to Taxotere® and dexamethasone, half of the patients were randomly treated with calcitriol and the other half received a placebo. Calcitriol was administered as three capsules of 15 μg each once a week on the day prior to chemotherapy. […] The same Taxotere® dose of 36 mg/m^2 body surface area was administered to the patients receiving Taxotere® and placebo or Taxotere® in combination with calcitriol. Drugs were administered for three weeks out of a four week cycle, with calcitriol being administered on days 1, 7, and 21 and Taxotere® being administered on days 2, 8, and 22.

[5] = in vivo; cited from earlier work
[6] = test system: cancer patients; settings: cited from earlier work
[7] = acute promyelocytic leukemia, Tallman 1997

Molecule: Nc1nc(F)nc2c1ncn2[C@@H]1O[C@H](COP(=O)(O)O)[C@@H](O)[C@@H]1O [fludarabine phosphate]
- Patients who developed pneumonia ([1]; 15-25 mg/m^2 daily for five days every 28 days): 22%
- Patients who developed pneumonia ([1]; 22-40 mg/m^2 daily for five days every 28 days): 16%

Molecule: NCCCNCCSP(=O)(O)O [WR 2721, S-2-(3-aminopropylamino)ethylphosphorothioic acid]
- Patients with emesis [2]: 48%
- Patients with hypotension [2]: 7%

Molecule: C=C1/C(=C\C=C2/CCC[C@]3(C)[C@@H]([C@H](C)CCCC(C)(C)O)CC[C@@H]23)C[C@@H](O)C[C@@H]1O [calcitriol, 1α,25-hydroxyvitamin D3]
- Calcitriol soluble in formulation [3]: ≥ 0.6 μg calcitriol/mg formulation

Molecule: CC(=O)O[C@@]12CO[C@@H]1C[C@H](O)[C@@]1(C)C(=O)[C@H](O)C3=C(C)[C@@H](OC(=O)[C@H](O)[C@@H](NC(=O)OC(C)(C)C)c4ccccc4)C[C@@](O)([C@@H](OC(=O)c4ccccc4)[C@H]21)C3(C)C [Taxotere®]
- Patients hospitalized for dyspnea [4]: four
- Patients who developed ARDS [4]: One

Molecule: C=C1/C(=C\C=C2/CCC[C@]3(C)C([C@H](C)CC#CC(C)(C)O)=CC[C@@H]23)C[C@@H](O)C[C@@H]1O [Ro23-7553]
- Hypercalcemic effect, in words [5]: reduced hypercalcemic effect

Molecule: gemtuzumab: cancer drug given to acute myelogenous patients; product Mylotarg™, Wyeth-Ayerst
- Patients with grade III or IV pneumonia ([1]; acute myelogenous patients, 9 mg/m^2 IV over 2 hours, two doses 14 days apart, Mylotarg package insert): 7%

Molecule: Nc1ccn([C@@H]2O[C@H](CO)[C@@H](O)C2(F)F)c(=O)n1 [gemcitabine]
- Patients with grade III-IV respiratory toxicity ([6]; out of 40 bladder cancer patients, 1200 mg/m^2 IV weekly times three on a 4-week cycle, Stadler 1997): 2 patients

Molecule: CC1=C(/C=C/C(C)=C/C=C/C(C)=C/C(=O)O)C(C)(C)CCC1 [all-trans-retinoic acid]
- Patients who developed grade III or IV pulmonary toxicity (total) [6, 7]: Twenty
- Patients with lethal pulmonary toxicity [6, 7]: 2%
- Patients with life-threatening pulmonary toxicity [6, 7]: 11%
- Patients with severe pulmonary toxicity [6, 7]: 7%
